# Test results reported in patent US11319299B2, “Substituted carboxamides as inhibitors of WDR5 protein-protein binding” (PROPELLON THERAPEUTICS INC., priority 2016, dated 2022).
# Target: WDR5 (Homo sapiens (Human), UniProt P61964)
# Test: Surface Plasmon Resonance (SPR) assay, KD and residence time
# Type: binding
# Conditions: surface plasmon resonance (SPR) assay; read-out: WDR5 binding affinity (KD)
# Description: (i) Surface Plasmon Resonance (SPR) Assay
# The lifetime of a drug on its target is determined by two rate constants: the association rate constant (kon) and the dissociation rate constant (koff). In principle, the lifetime of the binary drug—target complex is thus extended by a rapid rate of drug binding and/or a slow rate of drug—target complex dissociation. The in vivo lifetime of a drug-target complex is most critically dependent on the value of the koff [Nat. Rev. Drug Discov. […] Drug Discov. […] Drug-target residence time is defined as the reciprocal of koff (τ=1/koff), making the residence time a parameter that is easily measured by routine in vitro assay methods.
row,Kd [nM],Structure (SMILES)
1,23.4,"Cc1nc(C(F)(F)F)c(C(=O)Nc2cc(-c3cnc(N4CCOCC4)nc3)c(F)cc2N2CCN(C)C(C)C2)s1 (stereo in doubt) [Example 199, N-[4-fluoro-5-(2-morpholin-4-ylpyrimidin-5-yl)-2-[(3R)-3,4-dimethylpiperazin-1-yl]phenyl]-2-methyl-4-(trifluoromethyl)-1,3-thiazole-5-carboxamide]"
2,29.8,"CN(C)[C@@H]1CCN(c2cc(F)c(-c3cnc(N4CCOCC4)nc3)cc2NC(=O)c2c[nH]nc2C(F)(F)F)C1 [Example 185, N-[4-fluoro-5-(2-morpholin-4-ylpyrimidin-5-yl)-2-[(3R)-3-(dimethylamino)pyrrolidin-1-yl]phenyl]-3-(trifluoromethyl)-1H-pyrazole-4-carboxamide]"
3,0.688,"COc1cnc(N2CCC=C(c3cc(NC(=O)c4c[nH]c(=O)cc4C(F)(F)F)c(N4C[C@@H](C)N(C)[C@@H](C)C4)cc3F)C2)nc1 [Example 375, N-[4-fluoro-5-[1-(5-methoxypyrimidin-2-yl)-3,6-dihydro-2H-pyridin-5-yl]-2-[(3R,5S)-3,4,5-trimethylpiperazin-1-yl]phenyl]-6-oxo-4-(trifluoromethyl)-1H-pyridine-3-carboxamide]"
4,5.26,"CC1CN(c2cc(F)c(-c3ccc(N4CCN(C)CC4)nc3)cc2NC(=O)c2cn(C)c(=O)cc2C(F)(F)F)CCN1C (stereo in doubt) [Example 301, N-[4-fluoro-5-[6-(4-methylpiperazin-1-yl)pyridin-3-yl]-2-[(3R)-3,4-dimethylpiperazin-1-yl]phenyl]-1-methyl-6-oxo-4-(trifluoromethyl)pyridine-3-carboxamide]"
5,0.634,"CC1CN(c2ncc(-c3cc(NC(=O)c4c[nH]c(=O)cc4C(F)(F)F)c(N4C[C@@H](C)N(C)[C@@H](C)C4)cc3F)cn2)CCO1 (stereo in doubt) [Example 390, N-[4-fluoro-5-[2-[(2R)-2-methylmorpholin-4-yl]pyrimidin-5-yl]-2-[(3S,5R)-3,4,5-trimethylpiperazin-1-yl]phenyl]-6-oxo-4-(trifluoromethyl)-1H-pyridine-3-carboxamide]"
6,2.71,"C[C@@H]1CN(c2cc(F)c(-c3cnc(N4CCOCC4)nc3)cc2NC(=O)c2cc(Cl)c(F)c(Cl)c2)C[C@H](C)N1C [Example 212, 3,5-dichloro-4-fluoro-N-[4-fluoro-5-(2-morpholin-4-ylpyrimidin-5-yl)-2-[(3R,5S)-3,4,5-trimethylpiperazin-1-yl]phenyl]benzamide]"
7,4.32,"C[C@@H]1CN(c2cc(F)c(-c3ccnc(OCC4CCC4)c3)cc2NC(=O)c2c[nH]c(=O)cc2C(F)(F)F)C[C@H](C)N1C [Example 292, N-[5-[2-(cyclobutylmethoxy)pyridin-4-yl]-4-fluoro-2-[(3R,5S)-3,4,5-trimethylpiperazin-1-yl]phenyl]-6-oxo-4-(trifluoromethyl)-1H-pyridine-3-carboxamide]"
8,0.985,"C[C@@H]1CN(c2cc(F)c(-c3ccc(N(C)C)nc3)cc2NC(=O)c2c[nH]c(=O)cc2C(F)(F)F)C[C@H](C)N1C [Example 142, N-[5-[6-(dimethylamino)pyridin-3-yl]-4-fluoro-2-[(3R,5S)-3,4,5-trimethylpiperazin-1-yl]phenyl]-6-oxo-4-(trifluoromethyl)-1H-pyridine-3-carboxamide]"
9,175,"C[C@@H]1CN(c2cc(F)c(-c3cnc(N4CCOCC4)nc3)cc2NC(=O)c2ccccc2Cl)C[C@H](C)N1C [Example 109, 2-chloro-N-[4-fluoro-5-(2-morpholin-4-ylpyrimidin-5-yl)-2-[(3R,5S)-3,4,5-trimethylpiperazin-1-yl]phenyl]benzamide]"
10,0.858,"C[C@@H]1CN(c2cc(F)c(-c3ccc(OCC4CC4)cc3)cc2NC(=O)c2c[nH]c(=O)cc2C(F)(F)F)C[C@H](C)N1C [Example 113, N-[5-[4-(cyclopropylmethoxy)phenyl]-4-fluoro-2-[(3R,5S)-3,4,5-trimethylpiperazin-1-yl]phenyl]-6-oxo-4-(trifluoromethyl)-1H-pyridine-3-carboxamide]"

# Same assay, conditions: surface plasmon resonance (SPR); read-out: WDR5 binding affinity (KD)
row,Kd [nM],Structure (SMILES)
1,4.58,"C[C@@H]1CN(c2cc(F)c(-c3ccc(=O)n(C)c3)cc2NC(=O)c2c[nH]c(=O)cc2C(F)(F)F)C[C@H](C)N1C [Example 568, N-[4-fluoro-5-(1-methyl-6-oxopyridin-3-yl)-2-[(3R,5S)-3,4,5-trimethylpiperazin-1-yl]phenyl]-6-oxo-4-(trifluoromethyl)-1H-pyridine-3-carboxamide]"
2,5.97,"CC1CN(c2ccc(-c3cc(NC(=O)c4cn(C)c(=O)cc4C(F)F)c(N4C[C@@H](C)N(C)[C@@H](C)C4)cc3F)cn2)CCO1 (stereo in doubt) [Example 517, 4-(Difluoromethyl)-N-[4-fluoro-5-[6-[(2R)-2-methylmorpholin-4-yl]pyridin-3-yl]-2-[(3S,5R)-3,4,5-trimethylpiperazin-1-yl]phenyl]-1-methyl-6-oxopyridine-3-carboxamide]"
3,0.748,"C[C@@H]1CN(c2cc(F)c(-c3csc(N4CCOCC4)n3)cc2NC(=O)c2c[nH]c(=O)cc2C(F)(F)F)C[C@H](C)N1C [Example 616, N-[4-fluoro-5-(2-morpholin-4-yl-1,3-thiazol-4-yl)-2-[(3R,5S)-3,4,5-trimethylpiperazin-1-yl]phenyl]-6-oxo-4-(trifluoromethyl)-1H-pyridine-3-carboxamide]"
4,1.06,"C[C@@H]1CN(c2cc(F)c(-c3csc(C(=O)NCC4CC4)n3)cc2NC(=O)c2c[nH]c(=O)cc2C(F)(F)F)C[C@H](C)N1C [Example 531, N-(cyclopropylmethyl)-4-[2-fluoro-5-[[6-oxo-4-(trifluoromethyl)-1H-pyridine-3-carbonyl]amino]-4-[(3R,5S)-3,4,5-trimethylpiperazin-1-yl]phenyl]-1,3-thiazole-2-carboxamide]"
5,15.5,"C[C@@H]1CN(c2cc(F)c(-c3ccc(F)c(C(N)=O)c3)cc2NC(=O)c2cn(C)c(=O)cc2C(F)F)C[C@H](C)N1C [Example 591, N-[5-(3-carbamoyl-4-fluorophenyl)-4-fluoro-2-[(3R,5S)-3,4,5-trimethylpiperazin-1-yl]phenyl]-4-(difluoromethyl)-1-methyl-6-oxopyridine-3-carboxamide]"
6,0.231,"C[C@@H]1CN(c2cc(F)c(C3=CCN(c4ncc(CN5CCN(C)CC5)cn4)CC3)cc2NC(=O)c2c[nH]c(=O)cc2C(F)(F)F)C[C@H](C)N1C [Example 407, N-[4-fluoro-5-[1-[5-[(4-methylpiperazin-1-yl)methyl]pyrimidin-2-yl]-3,6-dihydro-2H-pyridin-4-yl]-2-[(3R,5S)-3,4,5-trimethylpiperazin-1-yl]phenyl]-6-oxo-4-(trifluoromethyl)-1H-pyridine-3-carboxamide]"
7,0.721,"COc1cnc(N2CC=C(c3cc(NC(=O)c4c[nH]c(=O)cc4C(F)(F)F)c(N4C[C@@H](C)N(C)[C@@H](C)C4)cc3F)C2)nc1 [Example 437, N-[4-fluoro-5-[1-(5-methoxypyrimidin-2-yl)-2,5-dihydropyrrol-3-yl]-2-[(3R,5S)-3,4,5-trimethylpiperazin-1-yl]phenyl]-6-oxo-4-(trifluoromethyl)-1H-pyridine-3-carboxamide]"
8,0.649,"C[C@@H]1CN(c2ncc(-c3cc(NC(=O)c4ccc(F)cc4C(F)(F)F)c(N4C[C@@H](C)N(C)[C@@H](C)C4)cc3F)cn2)C[C@H](C)O1 [Example 431, 4-fluoro-N-[4-fluoro-5-[2-[(2R,6S)-2,6-dimethylmorpholin-4-yl]pyrimidin-5-yl]-2-[(3S,5R)-3,4,5-trimethylpiperazin-1-yl]phenyl]-2-(trifluoromethyl)benzamide]"
9,39.3,"C[C@@H]1CN(c2cc(F)c(-c3ccc4ncn(C)c4c3)cc2NC(=O)c2cn(C)c(=O)cc2C(F)F)C[C@H](C)N1C [Example 681, 4-(difluoromethyl)-N-[4-fluoro-5-(3-methylbenzimidazol-5-yl)-2-[(3R,5S)-3,4,5-trimethylpiperazin-1-yl]phenyl]-1-methyl-6-oxopyridine-3-carboxamide]"
10,21.6,"C[C@@H]1CN(c2cc(F)c(-c3cnn(CCN4CCOCC4)c3)cc2NC(=O)c2cn(C)c(=O)cc2C(F)F)C[C@H](C)N1C [Example 717, 4-(difluoromethyl)-N-[4-fluoro-5-[1-(2-morpholin-4-ylethyl)pyrazol-4-yl]-2-[(3R,5S)-3,4,5-trimethylpiperazin-1-yl]phenyl]-1-methyl-6-oxopyridine-3-carboxamide]"
11,0.8,"C[C@@H]1CN(c2cc(F)c(-c3ccc(N4CCNCC4)cc3)cc2NC(=O)c2c[nH]c(=O)cc2C(F)(F)F)C[C@H](C)N1C [Example 549, N-[4-fluoro-5-(4-piperazin-1-ylphenyl)-2-[(3R,5S)-3,4,5-trimethylpiperazin-1-yl]phenyl]-6-oxo-4-(trifluoromethyl)-1H-pyridine-3-carboxamide]"
12,2.42,"C[C@@H]1CN(c2cc(F)c(-c3cnn(CCN4CCOCC4)c3)cc2NC(=O)c2c[nH]c(=O)cc2C(F)(F)F)C[C@H](C)N1C [Example 716, N-[4-fluoro-5-[1-(2-morpholin-4-ylethyl)pyrazol-4-yl]-2-[(3R,5S)-3,4,5-trimethylpiperazin-1-yl]phenyl]-6-oxo-4-(trifluoromethyl)-1H-pyridine-3-carboxamide]"
13,5.29,"CC1CN(c2cc(F)c(-c3ccc(C(N)=O)c(F)c3)cc2NC(=O)c2cn(C)c(=O)cc2C(F)F)CCN1C (stereo in doubt) [Example 652, N-[5-(4-carbamoyl-3-fluorophenyl)-4-fluoro-2-[(3R)-3,4-dimethylpiperazin-1-yl]phenyl]-4-(difluoromethyl)-1-methyl-6-oxopyridine-3-carboxamide]"
14,7.44,"CNC1CCN(c2cc(F)c(-c3cnc(N4CCOCC4)nc3)cc2NC(=O)c2c[nH]c(=O)cc2C(F)(F)F)CC1 [Example 541, N-[4-fluoro-2-[4-(methylamino)piperidin-1-yl]-5-(2-morpholin-4-ylpyrimidin-5-yl)phenyl]-6-oxo-4-(trifluoromethyl)-1H-pyridine-3-carboxamide]"
